Key:
Test in all cases: cells
NCM460 cells = format: cell-based; conditions: Homo sapiens, NCM460, read-out: IC50 (μM) ± SD (μM), NCM460
HCT-116 cells = format: cell-based, human
DLD1 cells = format: cell-based; conditions: Homo sapiens, DLD-1, read-out: IC50 (μM) ± SD (μM), DLD1
RKO cells = format: cell-based; conditions: Homo sapiens, read-out: IC50 (μM) ± SD (μM), RKO

`CC(=O)OC[C@H]1OC(OC(C)=O)[C@H](n2cc(C(=O)NC3([As](O)O)C=CC=CC3)nn2)[C@@H](OC(C)=O)[C@@H]1OC(C)=O` (stereo partly drawn) [Compound 8, 1-(1-(1,3,4,6-tetra-O-acetyl-2-deoxy-D-glucopyranos-2-yl) -1H-1,2,3-triazole-4-carboxamido)phenyl arsonous acid] was tested, and the IC50 (NCM460 cells) was 16.1 ± 2.21 µM, the Selectivity index (HCT-116 cells) was 0.91 and the IC50 (HCT-116 cells; Homo sapiens, HCT-116, read-out: IC50 (μM) ± SD (μM), HCT-116) was 17.7 ± 1.44 µM. It also gave an IC50 (DLD1 cells) of 15 ± 2.72 µM and an IC50 (RKO cells) of 4.57 ± 0.17 µM.
